From article PMC11864979, “First-in-class ultralong-target-residence-time p38α inhibitors as a mitosis-targeted therapy for colorectal cancer” (Nature Cancer, 2025)
Like-named read-outs stand apart in the source and are kept apart here.

Tests used:
Experiment in all cases: selectivity profiling in a panel of 340 wild-type kinases (Reaction Biology Europe)
Type in all cases: binding
[1] = biological target: T1, 340 wild-type kinases (Homo sapiens, UniProt Q02156)
T1 construct: purchased Reaction Biology Europe
T1 sequence (Q02156 1-737): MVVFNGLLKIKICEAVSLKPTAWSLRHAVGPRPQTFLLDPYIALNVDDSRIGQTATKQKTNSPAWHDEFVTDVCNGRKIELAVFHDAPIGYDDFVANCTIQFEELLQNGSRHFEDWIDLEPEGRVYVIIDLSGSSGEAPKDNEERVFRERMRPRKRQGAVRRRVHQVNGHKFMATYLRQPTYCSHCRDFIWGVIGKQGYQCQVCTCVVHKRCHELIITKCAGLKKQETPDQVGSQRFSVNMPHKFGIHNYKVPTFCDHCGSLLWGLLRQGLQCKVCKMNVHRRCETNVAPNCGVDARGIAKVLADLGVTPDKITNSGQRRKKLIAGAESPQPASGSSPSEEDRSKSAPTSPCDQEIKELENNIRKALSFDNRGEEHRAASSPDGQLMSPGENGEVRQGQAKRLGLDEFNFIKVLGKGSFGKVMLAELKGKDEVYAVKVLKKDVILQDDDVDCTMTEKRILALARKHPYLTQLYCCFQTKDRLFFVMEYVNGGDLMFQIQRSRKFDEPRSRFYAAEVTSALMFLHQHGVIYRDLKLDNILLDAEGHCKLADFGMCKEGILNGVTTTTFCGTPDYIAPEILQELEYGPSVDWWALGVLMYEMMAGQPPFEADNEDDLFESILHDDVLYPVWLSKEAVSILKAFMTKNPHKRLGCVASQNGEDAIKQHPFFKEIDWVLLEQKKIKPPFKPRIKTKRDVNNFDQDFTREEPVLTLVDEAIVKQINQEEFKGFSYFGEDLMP

[2] = biological target: T2, 340 wild-type kinases (Homo sapiens, UniProt O00311)
T2 construct: purchased Reaction Biology Europe

[3] = biological target: T3, 340 wild-type kinases (Homo sapiens, UniProt Q9UBE8)
T3 construct: purchased Reaction Biology Europe
T3 sequence (Q9UBE8 1-527): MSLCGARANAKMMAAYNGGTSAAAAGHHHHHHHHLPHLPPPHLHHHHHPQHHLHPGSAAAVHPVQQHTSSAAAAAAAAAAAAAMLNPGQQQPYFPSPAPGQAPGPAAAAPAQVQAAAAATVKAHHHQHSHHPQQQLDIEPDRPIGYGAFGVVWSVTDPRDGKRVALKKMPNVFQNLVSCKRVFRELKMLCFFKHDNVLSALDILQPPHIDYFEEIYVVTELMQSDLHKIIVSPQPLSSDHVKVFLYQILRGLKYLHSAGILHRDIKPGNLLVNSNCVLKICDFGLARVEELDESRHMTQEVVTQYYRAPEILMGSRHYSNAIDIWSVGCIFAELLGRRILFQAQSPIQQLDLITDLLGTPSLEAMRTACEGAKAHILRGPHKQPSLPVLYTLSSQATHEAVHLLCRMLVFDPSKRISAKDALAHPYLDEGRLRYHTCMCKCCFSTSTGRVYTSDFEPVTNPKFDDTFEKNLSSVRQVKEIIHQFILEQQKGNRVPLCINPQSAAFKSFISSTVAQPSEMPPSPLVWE

[4] = biological target: T4, 340 wild-type kinases (Homo sapiens, UniProt Q9NYY3)
T4 construct: purchased Reaction Biology Europe

[5] = biological target: T5, 340 wild-type kinases (Homo sapiens, UniProt Q8NE63)
T5 construct: purchased Reaction Biology Europe
T5 sequence (Q8NE63 1-616): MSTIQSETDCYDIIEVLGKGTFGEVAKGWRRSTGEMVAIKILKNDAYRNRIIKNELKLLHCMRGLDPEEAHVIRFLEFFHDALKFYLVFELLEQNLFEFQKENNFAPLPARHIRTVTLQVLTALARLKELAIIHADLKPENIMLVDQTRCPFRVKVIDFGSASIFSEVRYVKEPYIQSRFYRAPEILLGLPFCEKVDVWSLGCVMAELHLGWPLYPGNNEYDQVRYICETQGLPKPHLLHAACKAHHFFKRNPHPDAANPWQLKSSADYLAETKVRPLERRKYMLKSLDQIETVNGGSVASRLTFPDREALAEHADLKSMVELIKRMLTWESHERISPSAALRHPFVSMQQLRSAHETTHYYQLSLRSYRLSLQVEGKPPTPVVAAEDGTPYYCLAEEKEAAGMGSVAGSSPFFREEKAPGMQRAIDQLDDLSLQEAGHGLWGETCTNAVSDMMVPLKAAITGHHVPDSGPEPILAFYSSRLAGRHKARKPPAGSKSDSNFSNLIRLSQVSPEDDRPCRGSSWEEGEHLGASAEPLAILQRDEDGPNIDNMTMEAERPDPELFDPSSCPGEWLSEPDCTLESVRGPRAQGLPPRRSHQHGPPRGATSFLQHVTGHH

[6] = biological target: T6, 340 wild-type kinases (Homo sapiens, UniProt Q16620)
T6 construct: purchased Reaction Biology Europe

[7] = biological target: T7, 340 wild-type kinases (Homo sapiens, UniProt Q9Y6M4)
T7 construct: purchased Reaction Biology Europe

[8] = biological target: T8, 340 wild-type kinases (Homo sapiens, UniProt Q13557)
T8 construct: purchased Reaction Biology Europe

[9] = biological target: T9, 340 wild-type kinases (Homo sapiens, UniProt P49137)
T9 construct: purchased Reaction Biology Europe
T9 sequence (P49137 whole entry): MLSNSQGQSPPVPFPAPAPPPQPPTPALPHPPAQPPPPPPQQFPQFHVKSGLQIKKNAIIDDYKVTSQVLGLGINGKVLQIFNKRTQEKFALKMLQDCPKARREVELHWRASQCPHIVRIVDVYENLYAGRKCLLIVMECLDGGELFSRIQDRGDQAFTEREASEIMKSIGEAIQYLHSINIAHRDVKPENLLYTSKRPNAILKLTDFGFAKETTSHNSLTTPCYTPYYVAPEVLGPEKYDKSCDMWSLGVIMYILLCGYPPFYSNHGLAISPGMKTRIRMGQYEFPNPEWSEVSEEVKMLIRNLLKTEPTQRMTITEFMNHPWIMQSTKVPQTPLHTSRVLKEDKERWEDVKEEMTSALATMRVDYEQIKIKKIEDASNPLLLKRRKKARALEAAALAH

T2 sequence (O00311 whole entry): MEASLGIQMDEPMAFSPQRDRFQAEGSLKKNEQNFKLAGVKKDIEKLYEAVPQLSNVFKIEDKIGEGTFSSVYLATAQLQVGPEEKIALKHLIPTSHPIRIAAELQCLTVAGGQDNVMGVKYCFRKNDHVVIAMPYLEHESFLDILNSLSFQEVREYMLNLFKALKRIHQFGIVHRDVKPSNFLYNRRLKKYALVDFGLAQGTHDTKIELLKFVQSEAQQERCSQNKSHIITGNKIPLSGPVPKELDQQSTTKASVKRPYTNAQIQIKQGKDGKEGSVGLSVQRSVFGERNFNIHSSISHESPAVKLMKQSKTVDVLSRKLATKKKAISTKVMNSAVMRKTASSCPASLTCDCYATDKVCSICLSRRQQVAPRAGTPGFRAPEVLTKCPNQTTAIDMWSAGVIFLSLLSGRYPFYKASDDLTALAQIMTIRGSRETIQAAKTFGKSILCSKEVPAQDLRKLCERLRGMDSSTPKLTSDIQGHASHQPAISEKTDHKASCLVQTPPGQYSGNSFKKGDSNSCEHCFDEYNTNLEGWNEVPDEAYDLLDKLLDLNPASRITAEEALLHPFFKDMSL
T6 sequence (Q16620 32-822): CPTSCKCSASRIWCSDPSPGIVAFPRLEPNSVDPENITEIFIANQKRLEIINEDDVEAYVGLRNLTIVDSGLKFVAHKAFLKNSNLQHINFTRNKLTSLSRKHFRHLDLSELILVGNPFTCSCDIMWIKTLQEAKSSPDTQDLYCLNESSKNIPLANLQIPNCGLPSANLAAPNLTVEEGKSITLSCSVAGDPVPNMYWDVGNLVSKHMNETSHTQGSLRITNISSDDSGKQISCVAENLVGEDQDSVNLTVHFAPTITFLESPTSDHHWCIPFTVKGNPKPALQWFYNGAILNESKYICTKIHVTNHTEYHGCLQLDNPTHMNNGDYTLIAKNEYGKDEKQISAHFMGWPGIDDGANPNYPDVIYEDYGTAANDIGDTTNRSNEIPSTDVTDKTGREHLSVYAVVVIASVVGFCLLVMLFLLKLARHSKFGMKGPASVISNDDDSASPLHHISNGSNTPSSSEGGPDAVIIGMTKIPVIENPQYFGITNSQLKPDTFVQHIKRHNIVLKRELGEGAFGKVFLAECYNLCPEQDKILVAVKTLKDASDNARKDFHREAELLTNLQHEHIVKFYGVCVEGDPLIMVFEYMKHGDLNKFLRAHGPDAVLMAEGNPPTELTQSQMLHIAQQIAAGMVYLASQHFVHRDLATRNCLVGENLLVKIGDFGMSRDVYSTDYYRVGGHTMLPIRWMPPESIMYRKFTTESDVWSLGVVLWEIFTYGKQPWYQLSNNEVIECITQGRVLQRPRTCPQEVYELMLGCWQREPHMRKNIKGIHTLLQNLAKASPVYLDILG
T8 sequence (Q13557 whole entry): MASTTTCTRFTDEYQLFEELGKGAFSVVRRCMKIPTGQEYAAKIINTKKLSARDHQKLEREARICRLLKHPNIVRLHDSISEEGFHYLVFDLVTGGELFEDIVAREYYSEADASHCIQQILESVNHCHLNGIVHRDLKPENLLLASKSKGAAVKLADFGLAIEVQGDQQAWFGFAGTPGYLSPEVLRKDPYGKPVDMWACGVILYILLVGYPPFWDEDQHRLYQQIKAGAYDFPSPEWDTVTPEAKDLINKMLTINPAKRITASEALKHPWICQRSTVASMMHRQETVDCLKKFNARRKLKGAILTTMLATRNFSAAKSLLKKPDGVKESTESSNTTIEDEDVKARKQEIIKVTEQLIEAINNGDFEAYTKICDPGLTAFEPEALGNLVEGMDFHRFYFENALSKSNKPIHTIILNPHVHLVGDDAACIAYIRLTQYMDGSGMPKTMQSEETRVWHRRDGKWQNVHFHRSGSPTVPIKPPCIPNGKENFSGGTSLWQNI
T7 sequence (Q9Y6M4 whole entry): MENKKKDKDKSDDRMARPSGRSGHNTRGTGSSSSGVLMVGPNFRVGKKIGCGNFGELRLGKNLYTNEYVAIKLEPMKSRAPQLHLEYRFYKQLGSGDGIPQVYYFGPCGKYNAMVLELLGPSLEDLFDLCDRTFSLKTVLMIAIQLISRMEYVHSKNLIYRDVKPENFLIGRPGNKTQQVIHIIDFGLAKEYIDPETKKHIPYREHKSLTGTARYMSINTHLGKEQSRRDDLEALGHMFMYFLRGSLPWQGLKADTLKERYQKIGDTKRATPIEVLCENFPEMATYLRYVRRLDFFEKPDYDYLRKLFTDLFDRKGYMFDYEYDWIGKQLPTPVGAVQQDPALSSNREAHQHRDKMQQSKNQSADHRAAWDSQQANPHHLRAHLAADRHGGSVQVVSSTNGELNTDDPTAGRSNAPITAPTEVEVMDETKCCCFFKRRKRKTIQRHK
T4 sequence (Q9NYY3 whole entry): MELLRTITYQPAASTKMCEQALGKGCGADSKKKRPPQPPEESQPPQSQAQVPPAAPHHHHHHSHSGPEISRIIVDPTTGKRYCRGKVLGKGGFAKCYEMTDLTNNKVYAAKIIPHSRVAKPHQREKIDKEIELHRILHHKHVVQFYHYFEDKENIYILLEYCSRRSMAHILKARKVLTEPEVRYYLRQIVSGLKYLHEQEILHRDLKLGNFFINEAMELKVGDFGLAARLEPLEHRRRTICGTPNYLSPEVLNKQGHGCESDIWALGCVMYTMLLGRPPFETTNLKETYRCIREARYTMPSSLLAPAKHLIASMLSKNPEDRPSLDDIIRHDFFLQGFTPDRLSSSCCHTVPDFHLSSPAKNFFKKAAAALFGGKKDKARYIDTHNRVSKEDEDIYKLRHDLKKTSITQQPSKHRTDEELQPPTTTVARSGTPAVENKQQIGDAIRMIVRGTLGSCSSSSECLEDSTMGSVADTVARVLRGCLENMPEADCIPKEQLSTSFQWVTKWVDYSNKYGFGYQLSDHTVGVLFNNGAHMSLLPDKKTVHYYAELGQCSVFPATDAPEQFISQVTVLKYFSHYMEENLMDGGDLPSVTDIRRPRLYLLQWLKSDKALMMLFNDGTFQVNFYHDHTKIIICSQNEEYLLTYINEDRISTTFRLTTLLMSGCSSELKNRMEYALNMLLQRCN

CNC(=O)c1ccc2c(c1)C(=O)c1ccc(Nc3ccc(F)c(NC(=O)C4CC4)c3)cc1CC2 [Compound 2015] showed a remaining activity at 0.2 µM ([1]; 0.2 µM 2015, read-out: PKCepsilon residual activity) of 83.1%, a remaining activity at 1 µM ([1]; 1 µM 2015, read-out: PKCepsilon residual activity) of 90.5% and a remaining activity at 0.2 µM ([1]; PKCepsilon, 0.2 µM, read-out: residual activity) of 83.1%. The remaining activity at 1 µM ([1]; PKCepsilon, 1 µM, read-out: residual activity) was 90.5%, the remaining activity at 0.2 µM ([2]; 0.2 µM 2015, read-out: CDC7/DBF4 residual activity) was 108% and the remaining activity at 1 µM ([2]; 1 µM 2015, read-out: CDC7/DBF4 residual activity) was 95.1%. It also gave a remaining activity at 0.2 µM ([2]; CDC7/DBF4, 0.2 µM, read-out: residual activity) of 108%, a remaining activity at 1 µM ([2]; CDC7/DBF4, 1 µM, read-out: residual activity) of 95.1% and a remaining activity at 0.2 µM ([3]; 0.2 µM 2015, read-out: NLK residual activity) of 92%. The remaining activity at 1 µM ([3]; 1 µM 2015, read-out: NLK residual activity) was 85.5%, the remaining activity at 0.2 µM ([3]; NLK, 0.2 µM, read-out: residual activity) was 92% and the remaining activity at 1 µM ([3]; NLK, 1 µM, read-out: residual activity) was 85.5%. It also gave a remaining activity at 0.2 µM ([4]; 0.2 µM 2015, read-out: SNK residual activity) of 103%, a remaining activity at 1 µM ([4]; 1 µM 2015, read-out: SNK residual activity) of 97.3% and a remaining activity at 0.2 µM ([4]; SNK, 0.2 µM, read-out: residual activity) of 103%. For the same compound, the remaining activity at 1 µM ([4]; SNK, 1 µM, read-out: residual activity) was 97.3%, the remaining activity at 0.2 µM ([5]; 0.2 µM 2015, read-out: HIPK4 residual activity) was 96.4% and the remaining activity at 1 µM ([5]; 1 µM 2015, read-out: HIPK4 residual activity) was 95.4%. The remaining activity at 0.2 µM ([5]; HIPK4, 0.2 µM, read-out: residual activity) was 96.4%, the remaining activity at 1 µM ([5]; HIPK4, 1 µM, read-out: residual activity) was 95.5% and the remaining activity at 0.2 µM ([6]; 0.2 µM 2015, read-out: TRKB residual activity) was 99.7%. For the same compound, the remaining activity at 1 µM ([6]; 1 µM 2015, read-out: TRKB residual activity) was 91.3%, the remaining activity at 0.2 µM ([6]; TRKB, 0.2 µM, read-out: residual activity) was 99.7% and the remaining activity at 1 µM ([6]; TRKB, 1 µM, read-out: residual activity) was 91.3%. The remaining activity at 0.2 µM ([7]; 0.2 µM 2015, read-out: CK1gamma3 residual activity) was 93.4%, the remaining activity at 1 µM ([7]; 1 µM 2015, read-out: CK1gamma3 residual activity) was 91% and the remaining activity at 0.2 µM ([7]; CK1gamma3, 0.2 µM, read-out: residual activity) was 93.4%. The remaining activity at 1 µM ([7]; CK1gamma3, 1 µM, read-out: residual activity) was 91%, the remaining activity at 0.2 µM ([8]; 0.2 µM 2015, read-out: CAMK2D residual activity) was 98.1% and the remaining activity at 1 µM ([8]; 1 µM 2015, read-out: CAMK2D residual activity) was 95.7%. For the same compound, the remaining activity at 0.2 µM ([8]; CAMK2D, 0.2 µM, read-out: residual activity) was 98.1%, the remaining activity at 1 µM ([8]; CAMK2D, 1 µM, read-out: residual activity) was 95.7% and the remaining activity at 0.2 µM ([9]; 0.2 µM 2015, read-out: MAPKAPK2 residual activity) was 153%. The remaining activity at 1 µM ([9]; 1 µM 2015, read-out: MAPKAPK2 residual activity) was 118%, the remaining activity at 0.2 µM ([9]; MAPKAPK2, 0.2 µM, read-out: residual activity) was 153% and the remaining activity at 1 µM ([9]; MAPKAPK2, 1 µM, read-out: residual activity) was 118%.
